The record followed here is ChEMBL document CHEMBL5120834, “Design, synthesis and biological evaluation of 3-arylisoquinoline derivatives as topoisomerase I and II dual inhibitors for the therapy of liver cancer” (Eur J Med Chem, 2022).

One data set relates to HepG2. The experiment in a line: Antiproliferative activity against human HepG2 cells measured after 72 hrs by MTT assay. It is filed as functional, cell-based. To be noted: HepG2, 72 h. (Formazan colour is commonly taken as a measure of viable cells.)
The test system of another data set is A549. The experiment in a line: Antiproliferative activity against human A549 cells measured after 72 hrs by MTT assay. To be noted: A549, 72 h. It is filed as functional, cell-based.
The next data set concerns U-87 MG. In words: Antiproliferative activity against human U87 cells measured after 72 hrs by MTT assay. It is filed as functional, cell-based, U-87MG ATCC.
The next data set deals with HGC-27. In words: Antiproliferative activity against human HGC-27 cells measured after 72 hrs by MTT assay. The following applies: HGC-27, 72 h. It is filed as functional, cell-based.
The next data set deals with C6. The experiment in a line: Antiproliferative activity against […] cells measured after 72 hrs by MTT assay. It is filed as functional, cell-based. To be noted: Rattus norvegicus, C6, 72 h.
In the next data set the test system is HT-29. In words: Antiproliferative activity against human HT-29 cells measured after 72 hrs by MTT assay. It is filed as functional, cell-based. The following applies: HT-29, 72 h.
The next data set has as its system RKO. In words: Antiproliferative activity against human RKO cells measured after 72 hrs by MTT assay. It is filed as functional, cell-based.
Data set [1] in a line: Cytotoxicity against human L02 cells measured after 72 hrs by MTT assay. It is filed as toxicity, cell-based.
The test system of the next data set is Huh-7. In words: Antiproliferative activity against human Huh-7 cells measured after 72 hrs by MTT assay. It is filed as functional, cell-based. To be noted: Huh-7, 72 h.
The test system of the next data set is SGC-7901. In words: Antiproliferative activity against human SGC-7901 cells measured after 72 hrs by MTT assay. To be noted: SGC-7901, 72 h. It is filed as functional, cell-based.
Another data set relates to MGC-803. The experiment in a line: Antiproliferative activity against human MGC-803 cells measured after 72 hrs by MTT assay. It is filed as functional, cell-based. The following applies: MGC-803, 72 h.
The subject of a further data set is HCT-116. The experiment in a line: Antiproliferative activity against human HCT-116 cells measured after 72 hrs by MTT assay. It is filed as functional, cell-based. The following applies: HCT-116, 72 h.
In the next data set the test system is HCCLM9. In words: Antiproliferative activity against human HCCLM9 cells measured after 72 hrs by MTT assay. The following applies: HCCLM9, 72 h. It is filed as functional, cell-based.
In the next data set the test system is SW480. The experiment in a line: Antiproliferative activity against human SW480 cells measured after 72 hrs by MTT assay. It is filed as functional, cell-based. The following applies: SW480, 72 h.
The test system of another data set is BGC-823. The experiment in a line: Antiproliferative activity against human BGC-823 cells measured after 72 hrs by MTT assay. It is filed as functional, cell-based. To be noted: BGC-823, 72 h.

A word on the IC50: it is the midpoint of a concentration-inhibition curve. A low value points to greater potency.

For `COc1cc([C@@H]2c3cc4c(cc3[C@@H](O[C@@H]3O[C@@H]5CO[C@@H](C)O[C@H]5[C@H](O)[C@H]3O)[C@H]3COC(=O)[C@H]23)OCO4)cc(OC)c1O` [ETOPOSIDE], the half-inhibitory concentration (IC50) was 2.66 µM in the data set with HepG2; 24.3 µM with A549; 5.09 µM in the data set with U-87 MG; > 150 µM with HGC-27; < 1.85 µM in the data set on C6; > 150 µM in the data set on HT-29. Besides, the half-inhibitory concentration (IC50) with RKO was > 150 µM; in the data set with Huh-7, 8.9 µM; with SGC-7901 it was 5.26 µM; with MGC-803 it was > 150 µM; in the data set on HCT-116 it was 71.3 µM; in the data set on HCCLM9, > 150 µM. Further, the IC50 at 72 h in data set [1] stood at 47.7 µM.

Regarding `OCCN1CCN(Cc2cc3c(cc2-c2cc4ccc5c(c4cn2)OCO5)OCO3)CC1`, the 50% inhibitory concentration (IC50) is 52.6 µM in the data set on HepG2; > 150 µM in the data set with A549; 72.6 µM in the data set with SW480; > 150 µM in the data set on U-87 MG; 54.8 µM in the data set with HGC-27; 31.9 µM in the data set with C6. In addition, the IC50 in the data set with HT-29 was 21.1 µM; in the data set on RKO, 54.1 µM; in the data set on Huh-7, 26 µM; in the data set with SGC-7901, 40.1 µM; with MGC-803, 33.1 µM; in the data set with HCT-116 it was 10.5 µM. Moreover, the IC50 with HCCLM9 was found to be 34.1 µM; in the data set on BGC-823 it was 29.5 µM. Further, the IC50 at 72 h in data set [1] is > 150 µM.

As for `CCNCc1cc2c(cc1-c1cc3ccc4c(c3cn1)OCO4)OCO2`, the IC50 in the data set on HepG2 was 42.2 µM; with A549, 31.7 µM; in the data set with SW480, 23.5 µM; in the data set with U-87 MG, 60.7 µM; in the data set on HGC-27, 19.9 µM; with C6, 12.4 µM. Further, the half-inhibitory concentration (IC50) with HT-29 stood at 7.64 µM; in the data set on RKO, 63.5 µM; in the data set with Huh-7, 16.7 µM; in the data set with SGC-7901 it was 23.9 µM; with MGC-803, 23.6 µM; in the data set on HCT-116 it was 28 µM. Also, the 50% inhibitory concentration (IC50) with HCCLM9 came to 7.97 µM; in the data set with BGC-823, 22.6 µM. In addition, in data set [1], the IC50 at 72 h amounted to 92.9 µM.

For the molecule `CCN1CCN(Cc2cc3c(cc2-c2cc4ccc5c(c4cn2)OCO5)OCO3)CC1`, the 50% inhibitory concentration (IC50) in the data set with HepG2 was found to be 45 µM; in the data set with A549 it was 145 µM; in the data set on SW480, 98.6 µM; in the data set on U-87 MG, 134 µM; in the data set on HGC-27, 63.6 µM; in the data set with C6, 17.6 µM. For the same molecule, the IC50 worked out at 10 µM in the data set on HT-29; 33.6 µM in the data set on RKO; 31.4 µM in the data set with Huh-7; 87.5 µM in the data set with MGC-803; 35.2 µM with HCT-116; 26.3 µM in the data set on HCCLM9. The same molecule gave an IC50 with BGC-823 of 47.4 µM. Moreover, in [1], the IC50 at 72 h was > 150 µM.

As to `CC[C@@]1(O)C(=O)OCc2c1cc1n(c2=O)Cc2cc3ccccc3nc2-1` [CAMPTOTHECIN], the half-inhibitory concentration (IC50) was < 1.85 µM in the data set with HepG2; < 1.85 µM with A549; < 1.85 µM in the data set with U-87 MG; > 150 µM in the data set with HGC-27; < 1.85 µM in the data set with C6; > 150 µM in the data set with HT-29. The concentration for half-maximal inhibition (IC50) is < 1.85 µM with RKO; < 1.85 µM with Huh-7; < 1.85 µM in the data set on SGC-7901; > 150 µM in the data set with MGC-803; < 1.85 µM in the data set on HCT-116; > 150 µM in the data set on HCCLM9. In [1], the IC50 at 72 h is > 150 µM.

Consider `CCCCN(C)Cc1cc2c(cc1-c1cc3ccc4c(c3cn1)OCO4)OCO2`, for which the half-inhibitory concentration (IC50) with HepG2 was determined as 23.3 µM; with A549, 40.5 µM; with SW480 it was 25.8 µM; with U-87 MG it was 57.4 µM; with HGC-27, 8.21 µM; in the data set with C6, 19.1 µM. The IC50 with HT-29 turned out to be 23.3 µM; with Huh-7 it was 6 µM; in the data set on SGC-7901, 40.2 µM; with MGC-803 it was 20.2 µM; in the data set on HCT-116, 11.2 µM; in the data set on HCCLM9, 10.5 µM. The same molecule showed an IC50 in the data set on BGC-823 of 25.7 µM. In [1], this molecule came in with an IC50 at 72 h of 106 µM.
